Data as given in patent US7259145B2, “Mechanically activated channel blocker” (The Research Foundation of State University of New York, priority 2004, dated 2007).
Entries after “also recorded” stand apart in the source; their conditions may differ. Non-standard residues stand in square brackets, D forms with d. No end group written: not given here.

Tests used:
[1] = tested on: stretch-activated channels (SACs); test: SAC currents, outside-out patch of rat astrocytes (pressure clamp); assay type: cell-based; settings: for inhibition of SACs (averaged current): 5 μM, rat astrocyte outside-out patch, FIG. 2
Protocol: (§1) Primary reactive rat astrocytes cultures (passages 4 to 10) were prepared as previously described. Primary cultures of chick heart cells were prepared from 11-day-old embryos as previously described (Bett et al., J. Membr. Biol. 173, 237-254, 2000).
(§2) Outside-out patches were formed using pipettes containing 140 mM KCl, 2 mM MgCl2, 10 mM HEPES and 0.5 mM EGTA (as K ? salts). SAC currents were recorded using an Axopatch 200B patch clamp, with pClamp9 software and a Digidata 1322A acquisition system (Axon Instruments). Pressure was applied to the patch pipette with an HSPC-1 pressure clamp, and the patch was perfused using an ALA MP285 perfusion system (ALA Scientific Instruments). GsMTx4 or analog was dissolved in the perfusion solution: 140 mM NaCl, 10 mM Na-HEPES, 5 mM KCl, and 1 mM MgCl2. All experiments were repeated […] times.

gA channels = test: Gramicidin (gA) channel gating in lipid bilayer; assay type: biochemical
Protocol: FIG. 3 is a representation of the effect of GsMTx4 on gA channels. a, Current traces before and after addition of 200 nM GsMTx4 to both sides of a bilayer doped with chain-shortened des-Val 1-Gly 2-gA (gA2(13)) and [Ala 1]gA (AgA(15)) (numbers in parenthesis denote number of residues in the sequence): gA2 is the enantiomer of gA20. b, c, Single-channel currents (b) and lifetimes (c) as a function of GsMTx4 concentration (see Methods). d, Average lifetime (t) as a function of channel length, helix sense and identity of the aromatic at the channel/solution interface. gA2(13) and AgA(15) as above, AgA2(15) is [D-Ala 1]gA2, gT is [Tyr9,11,13,15]gA (ref. 21). 200 nM GsMTx4; columns and error bars denote mean±s.d. (n≧3).
The effect of L-GsMTx-4 on gA gating was first determined. gA channels are dimers formed by the transbilayer association of monomers in opposing monolayers (O'Connell et al., Science 250, 1256-1259, 1990). Channel formation is generally associated with local bilayer thinning, which makes gA monomer ⇄ dimer equilibrium and thus the channel lifetime and appearance rate sensitive to bilayer thickness, elastic moduli and curvature stress. Thus, if GsMTx4 binds to the lipid bilayer, one would expect it to also alter the lipid packing adjacent to the channel and thus the gA gating kinetics and, because it is cationic decrease the channel current.

[2] = tested on: stretch-activated channels (SACs); test: SAC currents, outside-out patch of chick heart cells; assay type: cell-based
Protocol: as §1, §2

[3] = Binding to large unilamellar lipid vesicles by tryptophan fluorescence; assay type: physicochemical
Protocol: Fluorescence measurements were performed as described by Ladokhin et al. (Anal. Biochem. 285, 235245, 2000) with an AMJNCO-Bowman Series 2 spectrofluorimeter. The excitation and emission wavelengths were 280 nm (8 nm band pass, 08 polarizer) and 346 nm (16 nm band pass, 908 polarizer). Large unilamellar vesicles of egg lecithin (Avanti Polar Lipids) were formed by extrusion. Tryptophan (Sigma) and GsMTx4 titration experiments were performed in 8 mM phosphate buffer containing 1 mM EGTA at pH 7. Three spectra were collected at each lipid concentration with both tryptophan and GsMtx4 (both at 30μM). After background subtraction, the mean fluorescence intensity at each lipid concentration was corrected for vesicle scattering (Ladokhin et al., Anal. Biochem, 285, 235245, 2000) and normalized to the zero lipid fluorescence intensity. The results are reported assuming a vesicle diameter of 130 nm, and area per lipid in the monolayer of 0.7 nm2.
To determine if GsMTx4 functions by altering bilayer properties, using the tryptophan fluorescence (Ladokhin et al., supra) of GsMTx4, we measured its binding to large unilamellar lipid vesicles. […]

cationic SACs [4] = test: Inhibition and gating of cationic SACs in vertebrate cell types (affinity, apparent rates); assay type: cell-based
Protocol: GsMTx4 inhibits ubiquitous cationic SACs in a variety of vertebrate cell types (200-600 nM, for example, chick heart, rat astrocytes and skeletal muscle, and human smooth muscle) (Gottlieb et al., Current Drug Targets—CNS & Neurological Disorders 3:287-295, 2004) despite the fact that they have different kinetic properties and presumably different structure. […] While not intending to be bound by any particular theory, it is believed, based on predictions using the Poisson-Boltzmann models, that this effect is seen when GsMTx4 is located within about 1.5 nm of the channel vestibule.
To determine if GsMTx4 functions by altering bilayer properties, using the tryptophan fluorescence (Ladokhin et al., supra) of GsMTx4, we measured its binding to large unilamellar lipid vesicles. The partition coefficient, defined as ([GsMTx4]bil/[Lipid])/([GsMTx4]aq/[H2O]) (where the subscripts denote the bilayer and aqueous phases, respectively, for example see White et al., Methods Enzymol. 295, 62-87, 1998), was ˜3×10^5 corresponding to an adsorption coefficient of 10 ^−3 cm (defined as ^2bil/[GsMTx4 ]aq, where ^2bil denotes the surface density, in moles per unit area). […] This has two implications. First, the intrinsic affinity between a lipid-bound GsMTx4 and the channel could be quite modest and yet account for the observed KD (Kim et al., Biophys. J. 60, 135148, 1991). Second, the mean surface density of GsMTx4 is sufficiently high that fast exchange (50 ms) between the bulk bilayer and the lipids adjacent to the channel can alter the local (and global) bilayer mechanical properties. The apparent association and dissociation rates for SAC effects (Ka≈10^6 M^−1 s^−1, KD≈0.2 s^−1) are consistent with such a fast exchange (as well as slower, more specific binding).

cationic SACs [5] = settings: chick heart, rat astrocytes and skeletal muscle, human smooth muscle; cited from earlier work
TRPC1 = test: Stretch activated channels in CHO cells transfected to express TRPC1; assay type: cell-based; settings: CHO cells expressing TRPC1
[6] = 5 mM GsMTx4 [sic], chick heart outside-out patch

## D-GsMTx4: All-D-amino-acid enantiomer of GsMTx4, SEQ ID NO:1 GCLEFWWKCNPNDDKCCRPKLKCSKLFKLCNFSF-amide (G[dC][dL][dE][dF][dW][dW][dK][dC][dN][dP][dN][dD][dD][dK][dC][dC][dR][dP][dK][dL][dK][dC][dS][dK][dL][dF][dK][dL][dC][dN][dF][dS][dF]-NH2; not fully specified (bridges); printed as GCLEFWWKCNPNDDKCCRPKLKCSKLFKLCNFSF-amide; ends and bridges not checked; also: three disulfides after oxidative folding, pairing not given here)
[1]
  inhibition of SACs (averaged current): equivalent efficacy to the wild type L-form; also recorded: inhibit SACs with similar efficacy to GsMTx4; also recorded: at least as potent and may be more potent than L-GsMTx-4
gA channels; 400 nM D-GsMTx4
  increase in gA channel appearance rates: 10 fold
  increase in gA channel lifetime: 4 fold

## GsMTx4
[2]; [6]
  reduction of average inward currents: 70%
  reduction of average outward currents: 90%
[2]; 5 mM GsMTx4 [sic], 250 mV pipette potential as printed, control 1.74 pA
  unitary current amplitude, inward: 1.58 pA
[2]; 5 mM GsMTx4 [sic], pipette potential printed 150 mV / 50 mV, control 1.10 pA
  unitary current amplitude, outward: 1.08 pA
[2]; in presence of GsMTx4
  change in outward unitary current amplitude: no change; also recorded: no observable effect
  reduction in inward unitary current amplitude: 10%
[3]; corresponding to the partition coefficient
  adsorption coefficient: 10 ^−3 cm
[3]; large unilamellar lipid vesicles, pH 7
  partition coefficient ([GsMTx4]bil/[Lipid])/([GsMTx4]aq/[H2O]): ~3×10^5
Cationic SACs [4]
  apparent association rate for SAC effects (Ka): ≈ 10^6 M^−1 s^−1
  apparent dissociation rate for SAC effects (KD): ≈ 0.2 s^−1
Cationic SACs [4]; SAC gating, read-out: effective KD for gating
  Kd: 500 nM
[1]; 5 μM GsMTx4 (b40 also prints 5 mM), outside-out astrocyte patch
  suppression of average inward current: 80%
[1]; 5 μM GsMTx4, data not shown
  open state dwell time distribution: not affected
[1]
  inhibition of SACs (averaged current): both inhibit SACs
[1]; applied to extracellular face, FIGS. 1a and 1b
  membrane tension required for SAC activation: increasing the membrane tension required for activation
Cationic SACs [5]
  concentration inhibiting cationic SACs: 200 to 600 nM
TRPC1
  inhibition of stretch activated channels: inhibited stretch activated channels
gA channels; FIG. 3b
  gA single-channel current: reduces the single-channel current
gA channels; GsMTx4, FIG. 3
  increase in gA channel appearance rate: 10-25 fold
gA channels; GsMTx4, FIG. 3c
  increase in gA open channel lifetime: approximately 2 fold
